This assay has as its target Ubiquitin carboxyl-terminal hydrolase 28 (Homo sapiens) (UniProt Q96RU2). The assay can be described thus: Ubiquitin-specific peptidase 28 DUB inhibitors, biochemical concentration-dependence assay, validation of primary screening hits (AID 1645866). The conditions noted are these: purified USP28, ubiquitin-rhodamine fluorescence, 30 min.

Calls of active or inactive are those of the source.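 How the source made its calls: active means in confirmatory dose-response testing, peak deubiquitinase inhibition of 30% or more; inactive means the rest.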

Ubiquitin carboxyl-terminal hydrolase 28 (Homo sapiens), sequence (Q96RU2 whole entry, looked up): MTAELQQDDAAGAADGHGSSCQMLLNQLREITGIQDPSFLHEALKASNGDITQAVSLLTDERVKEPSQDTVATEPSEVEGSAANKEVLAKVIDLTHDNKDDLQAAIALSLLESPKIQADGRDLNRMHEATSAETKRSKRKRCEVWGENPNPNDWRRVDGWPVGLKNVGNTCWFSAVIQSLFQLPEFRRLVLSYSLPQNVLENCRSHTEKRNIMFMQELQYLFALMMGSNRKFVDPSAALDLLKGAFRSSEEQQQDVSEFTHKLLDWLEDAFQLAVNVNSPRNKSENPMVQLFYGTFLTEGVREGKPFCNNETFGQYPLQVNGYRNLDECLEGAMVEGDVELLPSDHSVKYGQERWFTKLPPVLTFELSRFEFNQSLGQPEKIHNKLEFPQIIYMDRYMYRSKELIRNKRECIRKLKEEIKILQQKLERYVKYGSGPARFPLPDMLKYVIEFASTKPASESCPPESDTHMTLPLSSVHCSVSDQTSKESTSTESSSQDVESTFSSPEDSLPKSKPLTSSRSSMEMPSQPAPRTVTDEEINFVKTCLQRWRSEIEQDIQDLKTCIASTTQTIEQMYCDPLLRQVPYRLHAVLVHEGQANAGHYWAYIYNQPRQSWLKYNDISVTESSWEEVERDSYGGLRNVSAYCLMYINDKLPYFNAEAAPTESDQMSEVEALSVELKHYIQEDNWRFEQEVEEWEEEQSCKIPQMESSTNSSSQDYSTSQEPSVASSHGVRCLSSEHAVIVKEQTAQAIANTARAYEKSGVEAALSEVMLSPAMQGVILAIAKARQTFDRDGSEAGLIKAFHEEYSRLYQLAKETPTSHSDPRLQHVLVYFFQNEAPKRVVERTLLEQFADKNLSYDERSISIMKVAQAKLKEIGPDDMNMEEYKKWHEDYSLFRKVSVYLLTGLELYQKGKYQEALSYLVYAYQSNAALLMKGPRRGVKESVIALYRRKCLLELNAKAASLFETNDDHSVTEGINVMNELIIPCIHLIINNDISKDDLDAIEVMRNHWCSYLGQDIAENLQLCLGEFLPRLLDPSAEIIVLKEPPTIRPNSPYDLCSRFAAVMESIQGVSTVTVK

For `Cc1ccc(S(=O)(=O)N(C)C)cc1NC(=O)Cc1ccc(Cl)c(Cl)c1`, the half-maximal inhibitory concentration (IC50) was 0.274 µM.

Take `COc1ccc(/C=C/C(=O)Nc2ccc3c(c2)OCCO3)cc1Br`: the 50% inhibitory concentration (IC50) was 1.34 µM.

Regarding `COc1cc(N)c(Cl)cc1C(=O)OCC(=O)c1ccc2c(c1)OCCO2`, the IC50 was 6.12 µM.

For `O=C(Cc1noc2ccccc12)NCC(=O)Nc1ccc(Cl)cc1`, the IC50 was 18 µM.

Consider `CCn1cc(-c2cc(C(=O)Nc3cnn(Cc4cccc(F)c4)c3)c3ccccc3n2)cn1`, for which the concentration for half-maximal inhibition (IC50) is 42.1 µM.

Regarding `CC1=C2C(=NCCN1)C(=O)N(c1ccccc1)C2c1cccnc1` (stereo not given), the IC50 was > 50 µM (inactive).

`Cc1ccc2[nH]cc(S(=O)(=O)c3ccc(C)c(F)c3)c(=O)c2c1`: the concentration for half-maximal inhibition (IC50) was 19.9 µM.

As for `CN(C)C1CCN(C(=O)c2cc(-c3ccn(-c4ccccc4)n3)n3ccccc23)CC1`, the IC50 was > 50 µM (inactive).

Turning to `O=C(CCCc1c[nH]c2ccccc12)Nc1ccc2c(c1)OCCO2`, the 50% inhibitory concentration (IC50) is 4.42 µM.

For the compound `CN(CCCNC(=O)c1cccc2c1SCCC2=O)c1ccccc1`, the IC50 was > 50 µM (inactive).

As for `CCOC(=O)c1cn(C2CC2)c2cc(N3CCNCC3)c([N+](=O)[O-])cc2c1=O`, the IC50 was > 50 µM (inactive).

Take `Cc1ccc(NC(=O)CNC(=O)c2cc3ccccc3o2)cc1`: the 50% inhibitory concentration (IC50) is 21.2 µM.

On to `CCCCN(C)C(=O)c1cc2c(=O)n3cccc(C)c3nc2n1Cc1ccccc1`, for which the IC50 was > 50 µM (inactive).

With `CCCCCCCc1cc(O)cc(OC(=O)c2c(CCCCCCC)cc(O)cc2O[C@H]2O[C@H](C(O)CO)[C@@H](O)[C@@H]2O)c1` (stereo not given in full), the IC50 is 2.18 µM.

As for `CCOc1ccc(-n2c(SCC(=O)N3CC(=O)Nc4ccccc43)nnc2-c2ccc(OC)cc2)cc1`, the concentration for half-maximal inhibition (IC50) was 25.2 µM.

Take `COc1ccc(OC)c(-c2cn3ccn(-c4ccc5c(c4)CCC5)c(=O)c3n2)c1`: the IC50 is > 50 µM (inactive).

Consider `O=C(OCc1ccc(Br)cc1)c1ccc2ccccc2n1`, for which the half-maximal inhibitory concentration (IC50) is 1 µM.

Regarding `C/C=C1/C2=CCCN3C(=O)O[C@H]([C@H]1O)[C@H]23`, the IC50 was 2.94 µM.

As for `COc1cc(OC)cc(C(=O)Nc2cnc(-c3ccccc3)nc2)c1`, the IC50 is > 50 µM (inactive).

As to `COC(=O)c1ccc(C(=O)Nc2cc3ccccc3cc2NC(=O)c2ccc(C(=O)OC)cc2)cc1`, the 50% inhibitory concentration (IC50) was 2.78 µM.

Take `O=[N+]([O-])c1cccc(CSc2nnc(/C=C/c3ccccc3)o2)c1`: the IC50 was > 50 µM (inactive).

Consider `COc1ccc(/C=C/C(=O)Nc2c3c(nc4c2CCC4)CCCC3)cc1`, for which the half-inhibitory concentration (IC50) was 12.1 µM.

Turning to `CCCc1nc2sc3c(NC4CCCCC4)ncnc3c2c2c1CCC2`, the IC50 is below 0.05 µM.

In the case of `Cc1ccc(CNC(=O)c2ccc(N3C(=O)[C@@H]4Cc5ccccc5CN4C3=O)cc2)cc1`, the IC50 was 29.7 µM.

In the case of `O=C(Cn1c(NCc2ccccc2)nc2ccccc21)NCC(F)(F)F`, the IC50 was 46.6 µM.

Regarding `Cc1cc(C(=O)CSc2nc3ccccc3[nH]2)c(C)n1Cc1ccco1`, the IC50 is 36.2 µM.

As for `O=C(Cn1nnc(-c2ccc(F)cc2)n1)NCCc1ccccc1`, the half-maximal inhibitory concentration (IC50) is 44.3 µM.

On to `O=C1N(Cc2ccc(F)cc2)CCN1c1ccc2c(c1)CCC2`, for which the IC50 is 40.8 µM.

On to `COc1ccc(/C=C\c2nccc3c2[nH]c2ccccc23)cc1`, for which the IC50 was > 50 µM (inactive).

For `O=C(Cn1c(CSc2ccccc2)nc2ccccc21)Nc1ccccc1F`, the half-inhibitory concentration (IC50) was 26.4 µM.

Consider `CCOc1ccc2[nH]c3c(=O)n(CCc4ccc(OC)cc4)cnc3c2c1`, for which the IC50 is 5.81 µM.

Consider `Cc1ccc(C(=O)NCc2ccc(C(=O)Nc3ccc(C)c(C)c3)o2)cc1`, for which the IC50 is 28.2 µM.

As to `Cc1cc(C)nc(-n2nc(C)c3c2NC(=O)CSC3c2ccccc2F)n1` (stereo not given), the IC50 was 34.3 µM.

On to `CCC(C)(C)C1CCC2(CC1)N=C(N)Nc1nc3ccccc3n12` (stereo not given), for which the IC50 is 35.6 µM.

As for `CCCC(=O)Nc1nc2ccc(CCC(=O)NCc3ccc(F)cc3)cc2s1`, the half-maximal inhibitory concentration (IC50) is 25.8 µM.

As for `O=c1[nH]c2ccc(S(=O)(=O)Nc3ccc(O)c4ccccc34)cc2[nH]1`, the IC50 was 20 µM.

Regarding `CC(=O)c1oc2nc3c(c(-c4ccc(Cl)cc4)c2c1N)CCc1ccccc1-3`, the IC50 was > 50 µM (inactive).

With `O=C(O)c1ccc(C2Cc3c([nH]c(=O)[nH]c3=O)O2)cc1` (stereo not given), the IC50 is 6.53 µM.

In the case of `O=C(Nc1cccc(C(F)(F)F)c1)c1cc2c(s1)-c1ccccc1OC2`, the IC50 was 6.78 µM.

On to `O=C(COc1cc([N+](=O)[O-])cc2cccnc12)NCCC1=CCCCC1`, for which the IC50 is 28.6 µM.

`O=C1CC(O)C(C2=CC(=O)c3c(O)cccc3C2=O)O1` (stereo not given): the concentration for half-maximal inhibition (IC50) is 1.91 µM.

On to `COc1ccc2nc3c(cc2c1)c(=O)n(C)c1c3c(=O)n(-c2ccccc2)c(=O)n1-c1ccccc1`, for which the IC50 is > 50 µM (inactive).

Consider `Cc1c(C)c2ccc(OCC(=O)NCc3ccncc3)c(C)c2oc1=O`, for which the half-maximal inhibitory concentration (IC50) is 49.2 µM.

Turning to `Cc1nc(Nc2c3ccccc3nc3ccccc23)sc1C`, the IC50 is > 50 µM (inactive).

As to `Cc1cc(=O)oc2cc(OCC(=O)Nc3cc(Cl)ccc3N3CCOCC3)ccc12`, the IC50 was 41.2 µM.

With `N#Cc1ccc(-c2ccc(OCC(=O)Nc3ccc4c(c3)OCO4)cc2)cc1`, the 50% inhibitory concentration (IC50) is 11.5 µM.

As to `CSc1cccc(NC(=O)CNC(=O)c2cc3ccccc3o2)c1`, the IC50 was 46.2 µM.

`Fc1ccc(Cn2ccc(-c3cnc(-c4ccccc4)s3)n2)cc1`: the IC50 is 27.4 µM.

In the case of `O=c1c2ccccc2ncn1C1CCN(S(=O)(=O)c2ccccc2F)CC1`, the IC50 was 30.6 µM.

As to `Cc1ccc2c(c1C)NC(=O)[C@]21[C@@H]2C(=O)N(c3cccc(Cl)c3)C(=O)[C@@H]2[C@@H]2CCCN21`, the IC50 is > 50 µM (inactive).

For the compound `Cc1ccccc1Cn1ccc(NC(=O)c2noc(C)c2[N+](=O)[O-])n1`, the IC50 is 6.9 µM.

As for `CC(C)Cn1cc(OC(=O)c2ccc(F)cc2)c2c1nc(-c1ccc(F)cc1)n1c3ccccc3nc21`, the IC50 is > 50 µM (inactive).

As for `CC(=O)Nc1ccc(-n2cnc(C(=O)NC(C)c3ccccc3)c2)nc1` (stereo not given), the 50% inhibitory concentration (IC50) was 20.5 µM.

On to `CC[C@@]1(O)C[C@H](OC2CC(N(C)C)C(OC3CC(O)C(OC4CCC(=O)C(C)O4)C(C)O3)C(C)O2)c2c(cc3c(c2O)C(=O)c2c(O)ccc(O)c2C3=O)[C@H]1C(=O)OC` (stereo not given in full), for which the IC50 was 4.26 µM.

For the compound `CC(C)(C)c1ccc(C(=O)Nc2ccc(Oc3cccnc3)nc2)cc1`, the half-maximal inhibitory concentration (IC50) is 20.4 µM.

For the compound `Nc1nc(-c2ccc[nH]2)cs1`, the IC50 is > 50 µM (inactive).

As to `c1ccc(-n2nnc(-c3noc(-c4ccccn4)n3)c2-c2ccncc2)cc1`, the IC50 was 23.9 µM.

With `O=C(CSc1ccc2nnc(-c3ccccc3)n2n1)N1CCCc2ccccc21`, the IC50 is 9.31 µM.

As to `O=C(NCCc1ccccn1)c1cn2ccnc(-c3ccc(F)cc3)c2n1`, the IC50 was > 50 µM (inactive).

On to `COc1ccc(C(=O)CSc2ccc3nnc(CCNC(=O)c4ccc(OC)cc4)n3n2)cc1`, for which the IC50 is > 50 µM (inactive).

Consider `COc1ccc(Nc2nc3c(S(=O)(=O)c4ccc(C)cc4)nnn3c3ccsc23)c(OC)c1`, for which the half-maximal inhibitory concentration (IC50) was 2.01 µM.

Turning to `COc1cc(NC(=O)c2cc(-c3ccncc3)n(-c3ccc(F)cc3)n2)cc(OC)c1`, the half-maximal inhibitory concentration (IC50) was 12 µM.

As for `COc1ccc(NC(=O)c2nc3n(n2)-c2ccccc2S(=O)(=O)N3)cn1`, the IC50 was > 50 µM (inactive).

As to `C[C@@H]1OC2=C(C(=O)c3cccc(O)c3C2=O)[C@H](O)[C@@H]1O`, the 50% inhibitory concentration (IC50) is 2.79 µM.

For `O=C(Cn1c(=O)n(Cc2ccc(F)cc2)c(=O)c2ncccc21)Nc1ccccc1`, the IC50 is 29.5 µM.

The record behind these values is PubChem BioAssay AID1645866 (Buhrlage Lab, Dana-Farber Cancer Institute and Novartis …, 2021).
